The values that follow come from patent US10624947B2, “Bactericidal peptides and uses thereof” (INDIANA UNIVERSITY RESEARCH AND TECHNOLOGY CORPORATION, priority 2016, dated 2020).

The test system of one data set is Pseudomonas aeruginosa. It counts as cell-based.
In another data set the test system is V. vulnificus. Description: Iron-dextran septicemia model. In kind it is in vivo, mice (strain CD-1). The conditions noted are these: 10 or 20 μM intraperitoneally 1 h after V. vulnificus. How it is done: (§1) FIGS. 23A, B show the efficacy and toxicity of modified peptides in mice. […] The survival of mice injected intraperitoneally with iron dextran at 48 h after intraperitoneal injection of 10 or 20 μM of the modified peptides. […] Vibrio vulnificus (V. v.) strain CMCP6 was injected at 1×10^6 CFU. […] All mice receive iron dextran by intraperitoneal injection. Where indicated, 1 h later 10^6 bacterial CFU in 100 μL was injected into the peritoneum (opposite side). 1 h later, 100 μL of the peptide at the indicated concentration was administered on the same side as the bacterial injection.
(§2) Since B22a was effective in preventing infection of V. vulnificus in a surgical incision model, we tested it for efficacy for systemic infection in a mouse septicemia model (1). Groups of mice (strain CD-1) were first injected with […], followed 1 h later with an intraperitoneal injection of 1×10e6 colony forming units of V. vulnificus strain […]. The B22a was then injected intraperitoneally 1 h later and morbidity was monitored hourly for two days.
PB22N and other modified peptides were tested in a septicemic mouse model. V. vulnificus is a highly-pathogenic bacterium, causing septicemia and high mortality. In mice injected intraperitoneally with V. vulnificus, the majority of the mice had to be euthanized within 24 h due to severe symptoms associated with septicemia (FIG. 23B). […]

Data set [1] in a line: Toxicity of peptides injected intraperitoneally. In kind it is in vivo, mice. The conditions noted are these: intraperitoneal, 10 or 20 μM. How it is done: as §1, §2
PB22N and other modified peptides were tested in a septicemic mouse model. V. vulnificus is a highly-pathogenic bacterium, causing septicemia and high mortality. In mice injected intraperitoneally with V. vulnificus, the majority of the mice had to be euthanized within 24 h due to severe symptoms associated with septicemia (FIG. 23B). […] PB22N was effective in preventing mice from succumbing to systemic infection by the highly virulent V. vulnificus.

In data set [2] the test system is twenty representative Gram-negative bacteria of the Enterobacteriacea. Kind of data set: MIC panel. It counts as cell-based. The conditions noted are these: Table 10. From the text:
The lack of efficacy of B22a in inhibiting systemic bacterial infection may have been due to it not being sufficiently stable in vivo. Therefore, three peptides were synthesized that contain the B22 amino acid sequence with additional modifications. Peptide AB22a (SEQ ID No. 32) has an N-terminal acetyl group (CH3C(O)) and a C-terminal amide (NH2). Peptide AB22P (SEQ ID No. 33) has an N-terminal acetyl group and a C-terminal polyethyleneglycol (PEG) (PEG=conjugated 8-amino 3,6-dioxaoctanoic acid). Peptide PB22N (SEQ ID No. 34) has a PEG at the N-terminus. In vitro, PB22N was effective in inhibiting the growth of the majority of the Gram-negative bacteria of the Enterobacteriacea. […] PB22N was also efficacious in inhibiting antibiotic-resistant clinical isolates of Klebsiella pneumoniae (Table 11).

≈ marks a conversion by molar mass, not a printed value. Entries after “also recorded” stand apart in the source; their conditions may differ. Square brackets hold non-standard residues; d marks the D form. Peptide text beside a SMILES is read from it. AEEA = NCCOCCOCC(=O)O

Experimental for Escherichia coli: (§3) Antimicrobial activity was determined using the broth microdilution method based on the general recommendation of the Clinical and Laboratory Standards Institute. Bacteria were grown in Mueller-Hinton broth at 37° C. until OD625 reached 0.06, and then bacteria were further diluted into 1:20 for later use. […] 10 microliter (μL) of diluted bacteria was mixed with 90 μL of peptides at varying concentrations followed by incubation at 37° C. for 16-18 hours. The MIC is the lowest peptide concentration at which visible growth was inhibited. The MIC value was determined at least twice in independent experiments and typically in 3-4 assays.
Experimental for Klebsiella pneumoniae: as §3
Experimental for Pseudomonas aeruginosa: as §3

Take `CC[C@H](C)[C@H](NC(=O)[C@@H](NC(=O)[C@@H]1CCCN1C(=O)[C@H](CO)NC(=O)[C@H](CC(C)C)NC(=O)[C@H](CCCCN)NC(=O)[C@H](CCCCN)NC(=O)[C@H](Cc1ccccc1)NC(=O)[C@H](CC(C)C)NC(=O)[C@H](CCCCN)NC(=O)[C@H](CCCCN)NC(=O)[C@H](CC(C)C)NC(=O)[C@H](CCCCN)NC(=O)[C@H](CCCCN)NC(=O)[C@H](CCCNC(=N)N)NC(=O)[C@H](Cc1ccccc1)NC(=O)COCCOCCN)C(C)C)C(=O)N1CCC[C@H]1C(=O)N[C@@H](CC(C)C)C(=O)N[C@@H](CC(C)C)C(=O)N[C@@H](CCCCN)C(=O)N[C@@H](CC(C)C)C(=O)NCC(N)=O` [PB22N] (H-[AEEA]FRKKLKKLFKKLSPVIPLLKLG-NH2): the Minimal inhibitory concentration in the data set on Pseudomonas aeruginosa, in the data set on Escherichia coli and in the data set with Klebsiella pneumoniae was 1 µM (≈ 2.74 µg/mL) each time. For the same compound, the “Outcome in mouse septicemia model” value in the data set with V. vulnificus is “survived and did not exhibit symptoms of infection”. Moreover, in data set [1], the “Toxicity signs in mice injected with peptide” value is reported as “no obvious symptoms were observed; also recorded: no obvious effects on mice behavior or appearance”. Moreover, the “MICs relative to B22a” value in data set [2] is recorded as “approximately two-fold better”.
